pIC50: −log10 of the molar value. The source made the active and inactive calls. The rule behind the calls is not given here.
Target: Perilipin-1 (Homo sapiens) (UniProt O60240)
Test: ABHD5 and perilipin-1 interaction blockers – biochemical, luminescence, counter-screen for ABHD5-PLIN5 interaction inhibitor project, dose response (AID 651672);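 note: split Gaussia luciferase complementation between ABHD5 and PLIN1 fusion fragments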
Conditions: ABHD5-PLIN1 interaction

Sequence of Perilipin-1 (Homo sapiens) (O60240 whole entry, looked up, the tested form may be a part): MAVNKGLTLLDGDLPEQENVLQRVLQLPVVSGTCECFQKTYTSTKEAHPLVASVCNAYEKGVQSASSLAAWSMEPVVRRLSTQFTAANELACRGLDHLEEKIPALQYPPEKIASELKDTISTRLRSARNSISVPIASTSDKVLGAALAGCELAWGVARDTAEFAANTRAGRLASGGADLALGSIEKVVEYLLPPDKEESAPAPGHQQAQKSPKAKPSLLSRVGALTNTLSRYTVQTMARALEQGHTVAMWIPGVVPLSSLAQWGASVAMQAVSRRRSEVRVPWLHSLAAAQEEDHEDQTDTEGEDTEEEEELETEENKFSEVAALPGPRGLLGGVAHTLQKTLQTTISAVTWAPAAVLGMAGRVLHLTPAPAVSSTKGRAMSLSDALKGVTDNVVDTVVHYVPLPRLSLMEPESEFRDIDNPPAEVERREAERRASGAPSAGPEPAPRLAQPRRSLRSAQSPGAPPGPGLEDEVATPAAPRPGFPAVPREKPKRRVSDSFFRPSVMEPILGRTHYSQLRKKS

Row | Compound | pIC50 | IC50
1 | O=C(Nc1ccc2c(c1)OCCO2)C(c1ccccc1F)n1c(=O)c(-c2ccco2)nc2ccccc21 (centres undefined) | 5.04 | 
2 | O=CC1=C(c2ccccc2)Oc2ccccc2O1 | 5.59 | 
3 | O=C1NC(=O)N(c2ccccc2F)C(=O)/C1=C/c1ccc(Oc2ccc([N+](=O)[O-])cn2)cc1 | 5.56 | 
4 | CCOC(=O)C1CCCN(C(=O)c2cc(Nc3ccc(OC)cc3)nc3ccccc23)C1 (centres undefined) |  | inactive
5 | O=c1[nH]c(C2CCN(S(=O)(=O)c3ccc(S(=O)(=O)NC4CC4)cc3)CC2)nc2c1nnn2Cc1ccc(F)cc1 | 5.45 | 
6 | CN(C)CCCNC(=O)c1ccc(-c2nc(-c3ccc(Cl)cc3)cs2)cc1 |  | inactive
7 | Cc1ccc(C(=O)c2c(C)oc3c2C(=O)C(=O)c2ccccc2-3)cc1 | 5.27 | 
8 | CC1=CC(C)(C)Nc2ccc(OC(=O)C(C)N3C(=O)c4ccccc4C3=O)cc21 (centres undefined) | 5.74 | 
9 | CC1=CC2C(C(O)CC3(C)C2CC(C)C32OCOC23COCO3)C2(C)C/C(=C\O)C(=O)C=C12 (centres undefined) | 5.46 | 
10 | Cc1ccc(C)c(/C=C/C(=O)c2ccccc(=O)c2O)c1 | 5.25 | 
11 | Cc1nnc(NC(=O)c2nc(S(=O)(=O)Cc3ccccc3C)ncc2Cl)s1 | 5.41 | 
12 | CC(=O)Cc1cc(O)c2ccccc2c1OC(=O)c1ccccc1 | 5.58 | 
13 | Cc1ccc(CC2(OCCN(C)C)CCC(C(C)(C)C)CC2)cc1 (centres undefined) | 5.02 | 
14 | CCOc1cc(/C=C2\CCC/C(=C\c3cc(Cl)c(O)c(OCC)c3)C2=O)cc(Cl)c1O | 5.41 | 
15 | NC(=O)CCN1CCN(CCOC2Cc3cc(Cl)ccc3Sc3ccccc32)CC1 (centres undefined) |  | inactive
16 | CCN1/C(=C/C=C/c2oc3ccc(-c4ccccc4)cc3[n+]2CC)Oc2ccc(-c3ccccc3)cc21 | 5.90 | 
17 | CCC(=O)Nc1cccc(C(=O)/C=C/c2ccccc2)c1 | 5.70 | 
18 | COc1ccc(NC(=S)N(CCCN2CCCC2)Cc2cccn2Cc2ccc(Cl)cc2)cc1Cl |  | inactive
19 | CC1CN(Cc2c(O)ccc3c2oc(=O)c2ccccc23)CC(C)O1 (centres undefined) | 5.54 | 
20 | CC(C)(C)NC(=O)C(C1CC1)n1c(=O)c(-c2ccco2)nc2ccccc21 (centres undefined) | 5.38 | 
21 | CCC(C(=O)OCCN(CC)CC)c1ccccc1 (centres undefined) | 5.60 | 
22 | O=C(/C=C/Sc1ccccc1)c1ccc(Cl)cc1 | 5.42 | 
23 | O=C1NC(=O)N(Cc2ccccc2)C(=O)/C1=C\C=C\c1ccco1 | 5.74 | 
24 | COc1ccc(C(C(=O)Nc2c(C)cccc2C)n2c(=O)c(-c3ccco3)nc3ccccc32)cc1 (centres undefined) | 5.73 | 
25 | O=C(Nc1ccc(Cl)cc1)/C(=C/c1cccc(O)c1)c1nc2ccccc2s1 | 5.78 | 

Row | Compound | pIC50 | IC50
26 | CCOC1=CC2=C(C(=O)C(Cl)=CC2=O)[C@@H]2CN(S(=O)(=O)c3ccc(C)cc3)[C@@H](c3ccccc3)[C@H]12 | 5.87 | 
27 | CC(C)c1nnc(NC(=O)c2nc(S(=O)(=O)Cc3ccc(F)cc3)ncc2Cl)s1 | 5.55 | 
28 | COc1cc(OC)cc(C(=O)NC(=S)N(Cc2ccccc2)C(C)C)c1 |  | inactive
29 | C#CCN(C[C@@H]1[C@@H](OC(=O)NCc2ccc(OC)c(OC)c2)[C@@H](OC(=O)NCc2ccc(OC)c(OC)c2)Cn2c(=O)ccc(=O)n21)S(=O)(=O)c1ccc(C)cc1 | 5.34 | 
30 | COc1ccc(C(C(=O)NCc2ccccc2)n2c(=O)c(-c3ccco3)nc3ccccc32)cc1 (centres undefined) | 5.66 | 
31 | N#Cc1ccc(C(C(=O)NC2CCCCC2)n2c(=O)c(-c3ccco3)nc3ccccc32)cc1 (centres undefined) | 5.72 | 
32 | Cc1nc(-c2ccccc2)sc1C(=O)/C=C/c1ccccc1 | 5.56 | 
33 | CC(C)(C)NC(=O)C(c1ccc(C#N)cc1)n1c(=O)c(-c2ccco2)nc2ccccc21 (centres undefined) | 5.85 | 
34 | C#CCN(C[C@@H]1[C@@H](OC(=O)NC2CCCC2)[C@@H](OC(=O)NC2CCCC2)Cn2c(=O)ccc(=O)n21)S(=O)(=O)c1ccc(C)cc1 | 5.32 | 
35 | Oc1c(C(c2ccccc2)N2CCCCC2)ccc2ccccc12 (centres undefined) | 6.00 | 
36 | CCN1C/C(=C/c2ccc(OC)c(O)c2)C(=O)/C(=C/c2ccc(OC)c(O)c2)C1 | 5.12 | 
37 | O=C(NCc1ccccc1)C(c1ccccc1)n1c(=O)c(-c2ccco2)nc2ccccc21 (centres undefined) | 5.60 | 
38 | CCCC(=O)NC(c1cccc([N+](=O)[O-])c1)c1ccc2cccnc2c1O (centres undefined) |  | > 39800 nM (inactive)
39 | COc1ccc(NC(=O)C(c2ccc(OC)cc2)n2c(=O)c(-c3ccco3)nc3ccccc32)cc1 (centres undefined) | 5.11 | 
40 | Cc1ccc(CS(=O)(=O)c2ncc(Cl)c(C(=O)Nc3nnc(C(C)C)s3)n2)cc1 | 5.77 | 
41 | CCCCCNC(=O)C(c1cccc2ccccc12)n1c(=O)c(-c2ccco2)nc2ccccc21 (centres undefined) | 5.70 | 
42 | CCc1nnc(NC(=O)c2nc(S(=O)(=O)Cc3cccc(C)c3)ncc2Cl)s1 | 5.48 | 
43 | Oc1ccc2sc(-c3ccccc3O)c(-c3ccc(OCCN4CCCCC4)cc3)c2c1 | 5.15 | 
44 | CSC(=Nc1ccccc1)N=C(SCc1ccccc1)N(C)C | 5.93 | 
45 | CC(C)(C)NC(=O)C(c1ccccc1F)n1c(=O)c(-c2ccco2)nc2ccccc21 (centres undefined) | 5.64 | 
46 | C=C1C(=O)O[C@H]2C[C@H]1[C@@H](OC(C)=O)C/C(C)=C/CC/C(C)=C\CC[C@]2(C)O | 5.73 | 
47 | CCCCC(=O)NC(c1cccc([N+](=O)[O-])c1)c1ccc2cccnc2c1O (centres undefined) |  | inactive
48 | Cc1oc2c(c1C(=O)c1ccc(Cl)cc1)C(=O)C(=O)c1ccccc1-2 | 5.40 | 
49 | COc1ccc(C(C(=O)NC(C)(C)C)n2c(=O)c(-c3ccco3)nc3ccccc32)cc1 (centres undefined) | 5.74 | 
50 | COCCNC(=O)/C(C#N)=C/c1cccc(/C=C(\C#N)C(=O)NCCOC)c1 | 6.09 | 

Row | Compound | pIC50 | IC50
51 | Cc1cccc(C)c1NC(=O)C(c1ccnc2ccccc12)n1c(=O)c(-c2ccco2)nc2ccccc21 (centres undefined) | 5.48 | 
52 | CCCc1nc(C)c2c(=O)[nH]c(-c3cc(S(=O)(=O)N4CCN(CC)CC4)ccc3OCC)nn12 | 5.61 | 
53 | COC(=O)c1cc(=O)n(Cc2ccco2)c(=Nc2ccc(F)cc2)s1 | 5.50 | 
54 | COc1ccc(NC(=O)C(c2ccc(C#N)cc2)n2c(=O)c(-c3ccco3)nc3ccccc32)cc1 (centres undefined) |  | inactive
55 | CCOc1cc(N)c(Cl)cc1C(=O)NCC1CN(Cc2ccc(F)cc2)CCO1 (centres undefined) | 5.71 | 
56 | O=C(NCc1ccccc1)C(c1cc2ccccc2o1)n1c(=O)c(-c2ccco2)nc2ccccc21 (centres undefined) | 5.64 | 
57 | O=C(NC1CCCCC1)C(c1cccc2ccccc12)n1c(=O)c(-c2ccco2)nc2ccccc21 (centres undefined) | 5.91 | 
58 | O=C(/C=C/c1ccccc1)CC(O)(c1ccccc1)C(F)(F)C(F)F (centres undefined) | 6.09 | 
59 | Cc1cccc(C)c1NC(=O)C(c1ccccc1F)n1c(=O)c(-c2ccco2)nc2ccccc21 (centres undefined) | 5.55 | 
60 | CCCCCCC=C1CCC(CN2CCCC2)C1=O (centres undefined) | 5.86 | 
61 | Cc1cc(C)c2nc(NNC(=O)c3ccc(S(=O)(=O)N4CCCC(C)C4)cc3)sc2c1 (centres undefined) | 5.52 | 
62 | Cc1cccc(C)c1NC(=O)C(c1ccc(C#N)cc1)n1c(=O)c(-c2ccco2)nc2ccccc21 (centres undefined) | 5.58 | 
63 | O=C(NCc1ccccc1)C(C1CC1)n1c(=O)c(-c2ccco2)nc2ccccc21 (centres undefined) | 5.22 | 
64 | C#CCN(C[C@@H]1[C@@H](OC(=O)NCc2ccccc2F)[C@@H](OC(=O)NCc2ccccc2F)Cn2c(=O)ccc(=O)n21)S(=O)(=O)c1ccc(C)cc1 | 5.35 | 
65 | COC(=O)c1ccc(Cn2cc(/C=C\[N+](=O)[O-])c3ccccc32)o1 |  | > 13300 nM (inactive)
66 | CCCCCNC(=O)C(c1ccc(C#N)cc1)n1c(=O)c(-c2ccco2)nc2ccccc21 (centres undefined) | 5.53 | 
67 | CN(C)CCOc1ccc(/C(=C(/CCCl)c2ccccc2)c2ccccc2)cc1 | 5.94 | 
68 | CN1CCC[C@@H]1CCO[C@](C)(c1ccccc1)c1ccc(Cl)cc1 |  | inactive
69 | CN(C)CCCN(C(=O)CCc1ccccc1)c1nc2ccc(Br)cc2s1 | 5.07 | 
70 | Cc1cc(C)c(C(CC(=O)c2cccs2)C(C#N)C#N)c(C)c1 (centres undefined) | 5.17 | 
71 | CCCNC(=O)Nc1ccc2c(c1)N(C)C(=O)c1ccccc1S2 | 5.30 | 
72 | CC1=CC(C)(C)Nc2ccc(OC(=O)c3cccnc3)cc21 | 5.71 | 
73 | CC1=CC(C)(C)Nc2ccc(OC(=O)CN3C(=O)C4CCCCC4C3=O)cc21 (centres undefined) | 5.64 | 
74 | CC(=O)C1=C(c2cccc([N+](=O)[O-])c2)N(C(C)=O)n2c(C)nnc2S1 | 5.61 | 
75 | Cc1ccc(SC2=C(Sc3ccc(C)cc3)C(=O)c3ccccc3C2=O)cc1 | 5.17 | 

Row | Compound | pIC50 | IC50
76 | CCCCCNC(=O)C(C1CC1)n1c(=O)c(-c2ccco2)nc2ccccc21 (centres undefined) | 5.18 | 
77 | CC(=O)Oc1c(Cl)c(N2CCOCC2)c(OC(C)=O)c2ccccc12 | 5.35 | 
78 | CCCCCNC(=O)C(c1ccc(C(F)(F)F)cc1)n1c(=O)c(-c2ccco2)nc2ccccc21 (centres undefined) | 5.54 | 
79 | O=C(C[n+]1cccc(CNC(=O)c2ccc(OC(F)F)cc2)c1)Nc1cccc(C(F)(F)F)c1 |  | inactive
80 | CCN(CC)CCC(C)OC(c1ccccc1)c1ccccc1 (centres undefined) | 5.58 | 
81 | CC(=O)Oc1ccc(C23c4ccccc4C2(OC(C)=O)c2cc(OC(C)=O)ccc23)cc1 (centres undefined) | 6.24 | 
82 | O=C(NCc1ccccc1)C(c1ccc(C(F)(F)F)cc1)n1c(=O)c(-c2ccco2)nc2ccccc21 (centres undefined) | 5.80 | 
83 | Cc1ccc(C(=O)/C=C/c2cc(Br)cc(Br)c2O)o1 | 5.24 | 
84 | CC(=O)Nc1ccc(S(=O)(=O)N2c3ccc(F)cc3CCC2C)cc1 (centres undefined) |  | inactive
85 | CCN(CC)CCOCCOC(=O)C1(c2ccccc2)CCCC1 | 5.73 | 
86 | O=C(Cn1c(=O)n(Cc2ccco2)c(=O)c2c3c(sc21)CCCC3)Nc1ccccc1 | 5.06 | 
87 | CCN(CCCc1ccccc1)CCCc1ccccc1 | 5.65 | 
88 | CSc1nnc(NC(=O)c2nc(S(=O)(=O)Cc3ccc(C)cc3)ncc2Cl)s1 | 5.51 | 
89 | O=C(/C(=C/O)N=Nc1ccc(Cl)cc1)c1ccncc1 | 5.13 | 
90 | Cc1cccc(C)c1NC(=O)C(c1ccc(-c2ccccc2)cc1)n1c(=O)c(-c2ccco2)nc2ccccc21 (centres undefined) | 5.83 | 
91 | O=C(NC1CCCCC1)C(c1ccccc1F)n1c(=O)c(-c2ccco2)nc2ccccc21 (centres undefined) | 5.72 | 
92 | Cc1ccc(S(=O)(=O)N2C[C@@]3(O)Cn4c(=O)ccc(=O)n4C[C@@]3(OC(=O)NCC3CCCCC3)C2)cc1 | 5.21 | 
93 | O=S(=O)(NC1=NCCCCC1)c1ccc2sc(NS(=O)(=O)c3ccc4ccccc4c3)nc2c1 |  | inactive
94 | CC(C)(C)NC(=O)C(c1ccncc1)n1c(=O)c(-c2ccco2)nc2ccccc21 (centres undefined) | 5.62 | 
95 | CN1C(=O)/C(=C/C=C/c2ccco2)C(=O)NC1=S | 5.23 | 
96 | CN(C)CCN(Cc1ccco1)c1ccccn1 |  | inactive
97 | Cc1cccc(NC(=O)CSc2nnc(-c3ccco3)c(-c3ccco3)n2)c1 | 5.72 | 
98 | O=C(Nc1ccc2c(c1)OCCO2)C(c1ccnc2ccccc12)n1c(=O)c(-c2ccco2)nc2ccccc21 (centres undefined) |  | inactive
99 | CC1Sc2ccc(S(=O)(=O)N3CCC(C(=O)NCc4ccc(Cl)cc4)CC3)cc2NC1=O (centres undefined) | 5.08 | 

Reference: PubChem BioAssay AID651672 (The Scripps Research Institute Molecular Screening Center, 2012)
